Test results reported in patent publication US12486260B2, “Indazolyl-isoxazole derivatives for the treatment of diseases such as cancer” (Merck Patent GmbH, priority 2019, dated 2025).

Legend:
[1] = target: T1, c-Kit(V654A) (Homo sapiens, UniProt P10721, V654A); assay: c-Kit(V654A) kinase assay (33P-ATP filter binding); assay type: biochemical; settings: Table 2, isoxazole vs corresponding triazole derivatives; 200 μM ATP, 40 minutes; read-out: Inhibition (IC50) of c-Kit (V654A)
T1 construct: amino acids 544-end; GST (N)
T1 sequence (P10721 544-976 V654A): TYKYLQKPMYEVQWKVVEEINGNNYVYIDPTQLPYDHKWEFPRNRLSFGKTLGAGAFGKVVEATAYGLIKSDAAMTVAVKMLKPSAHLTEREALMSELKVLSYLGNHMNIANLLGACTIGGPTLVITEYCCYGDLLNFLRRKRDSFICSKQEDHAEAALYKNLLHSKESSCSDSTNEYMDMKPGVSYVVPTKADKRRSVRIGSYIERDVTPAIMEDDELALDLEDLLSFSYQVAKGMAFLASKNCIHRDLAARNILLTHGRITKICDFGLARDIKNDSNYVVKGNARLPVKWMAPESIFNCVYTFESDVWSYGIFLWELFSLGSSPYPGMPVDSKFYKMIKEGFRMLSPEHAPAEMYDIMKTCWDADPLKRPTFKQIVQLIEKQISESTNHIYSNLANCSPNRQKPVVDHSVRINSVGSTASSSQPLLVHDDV
Protocol: • HPLC/MS: Agilent 1200/6100 • eluent A: water+0.05% formic acid • eluent B: acetonitrile+0.04% formic acid • column: Chromolith HR RP-18e; 50-4.6 mm • flow rate: 3.3 ml/min • gradient: 0%→100% B: 0.0→2.0 min 100% B: 2.0→2.5 min • UV detection: 220 nm • MS detection: 65-800 amu positive HPLC/MS Conditions B: • HPLC/MS: Agilent 1200/6100 • eluent A: water+0.05% formic acid • eluent B: acetonitrile+0.04% formic acid • column: Kinetex XB-C18; 2.6 μm; 50-4.6 mm • flow rate: 2.5 ml/min • gradient: 0%→100% B: 0.0→1.4 min 100% B: 1.4→2.0 min • UV detection: 220 nm • MS detection: 65-800 amu positive UPLC/MS Conditions: • UPLC/MS: Waters Acquity/SQD • eluent A: water+0.05% formic acid • eluent B: acetonitrile+0.04% formic acid • column: Kinetex XB-C18; 1.7 μm; 50-2.1 mm • flow rate: 0.9 ml/min • gradient: 2%→100% B: 0.0→1.0 min 100% B: 1.0→1.3 min • UV detection: 220 nm/254 nm/MaxPlot/TotalPlot • MS detection: 61-800 amu positive Assays c-Kit(V654A) Assay:
c-Kit(V654A) (N-terminal GST-tagged, recombinant human c-Kit, amino acids 544-end containing the V654A mutation) is incubated with 8 mM MOPS pH 7.0, 0.2 mM EDTA, 250 μM GGMEDIYEFMGGKKK, 10 mM MgAcetate and [gamma-33P-ATP] (specific activity approx. 500 cpm/pmol, concentration 200 μM). The reaction is initiated by the addition of the MgATP mix. […]

[2] = target: T2, mutant cKIT (Δ560-576 and V654A) in GIST430/654 cell line (Homo sapiens, UniProt P10721, DEL560-576/V654A); assay: cellular testing of cKIT mutant inhibitors: cKIT autophosphorylation in GIST430/654 cells (Luminex); assay type: cell-based; settings: Table 2, isoxazole vs corresponding triazole derivatives; phospho-Y307-cKIT, 45 min; read-out: Inhibition (IC50) of GIST 430/654
T2 construct: GIST430/654 cell line expressing mutated constitutively active cKIT receptor tyrosine kinase; endogenous in cells; host or cells: GIST430/654
T2 sequence (P10721 with tags, fused parts or gaps DEL560-576/V654A): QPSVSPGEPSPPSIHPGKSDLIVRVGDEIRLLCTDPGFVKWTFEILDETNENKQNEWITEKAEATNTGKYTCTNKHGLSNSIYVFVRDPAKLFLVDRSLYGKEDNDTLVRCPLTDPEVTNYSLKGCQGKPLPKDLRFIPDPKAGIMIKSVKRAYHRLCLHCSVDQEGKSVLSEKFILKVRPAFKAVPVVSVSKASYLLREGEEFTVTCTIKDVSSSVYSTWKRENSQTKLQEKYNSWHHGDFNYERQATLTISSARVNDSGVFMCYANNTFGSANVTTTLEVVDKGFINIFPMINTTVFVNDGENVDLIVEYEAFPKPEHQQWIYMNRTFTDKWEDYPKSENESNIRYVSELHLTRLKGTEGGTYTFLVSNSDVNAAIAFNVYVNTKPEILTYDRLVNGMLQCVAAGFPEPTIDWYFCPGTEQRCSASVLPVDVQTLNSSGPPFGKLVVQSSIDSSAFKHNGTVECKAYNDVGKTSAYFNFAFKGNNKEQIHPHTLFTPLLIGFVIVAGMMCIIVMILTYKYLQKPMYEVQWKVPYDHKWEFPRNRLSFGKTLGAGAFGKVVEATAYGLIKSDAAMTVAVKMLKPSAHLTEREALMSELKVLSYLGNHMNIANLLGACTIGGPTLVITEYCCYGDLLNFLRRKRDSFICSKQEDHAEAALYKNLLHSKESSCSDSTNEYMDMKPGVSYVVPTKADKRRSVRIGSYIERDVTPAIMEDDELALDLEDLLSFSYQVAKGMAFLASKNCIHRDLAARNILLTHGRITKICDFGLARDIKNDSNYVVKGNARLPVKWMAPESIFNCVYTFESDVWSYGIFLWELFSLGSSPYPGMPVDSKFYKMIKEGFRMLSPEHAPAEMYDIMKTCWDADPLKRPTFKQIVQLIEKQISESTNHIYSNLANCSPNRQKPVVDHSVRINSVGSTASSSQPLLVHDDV
Protocol: Assay Principle for Cellular Testing of cKIT Mutant Inhibitors
The GIST430/654 cell line expressing mutated constitutively active cKIT receptor tyrosine kinase (Δ560-576 and V654A) was employed for assessing cellular potency of compounds. Cellular activity of mutant cKIT was determined by the degree of cKIT autophosphorylation at tyrosine 307 using a Luminex-based bead assay. GIST430/654 cells were plated with 25,000 cells per well of a 96-well plate in 100 μl medium (85% IMDM/15% FCS supplemented with 100 nM Imatinib). At the following day compounds were added in a serial dilution for 45 min. Then, cells were lysed with 90 μl lysis buffer (20 mM Hepes pH 7.5, 200 mM NaCl, 1.5 mM MgCl2×6H2O, 0.4 mM EDTA, 1% Triton-X-100, 1% Phosphatase-Inhibitor II, 20 mM β-Glycerolphosphat, 0.1% Protease-Inhibitor Cocktail III, 0.01% Benzonase) und lysates were cleared by centrifugation through a 96-well filter plate (0.65 μm). Samples were incubated with Luminex-beads which were coupled with an anti-total cKIT antibody overnight at 4° C. under gentle agitation. […] The amount of phospho-Y307-cKIT was determined in a Luminex 200 instrument measuring 100 events per well within 60 seconds.
Counts from samples treated with compounds were calculated as percent of control from solvent treated (0.3% DMSO) samples. Dose-response curves were fitted and IC50 values were determined using Genedata Screener software.

SMILES	IC50 [1] [nM]	IC50 [2] [nM]
COCCOc1cc2[nH]nc(-c3cn(-c4ccc(C(=O)N5CC[C@@H]5C(C)(C)O)cc4)nn3)c2cc1F	5.1	220
COCCOc1cc2[nH]nc(-c3cn(-c4ccc(C(=O)N5CC(N6CCOCC6)C5)cc4)nn3)c2cc1F	1.1	610
